# Laboratory results taken from patent US20090270435A1 (priority 2006, published 2009).
# Where a name gives a salt, the structure may show the parent alone.
# Target: T1, ACC1 from rat liver (Rattus norvegicus, UniProt P11497)
# T1 construct: The livers (for ACC1 preparation) or skeletal muscle tissue (for ACC2 preparation) are removed; from tissue; host or cells: liver of male CD rats (fasted, then fed a high sucrose diet)
# Assay: Direct inhibition of ACC1 activity (14C-bicarbonate incorporation)
# Assay type: biochemical
# Protocol: [1] Preparation of ACC1 and ACC2.
# Male CD rats weighing 150-200 g are fasted for 2 days and then fed a high sucrose diet (AIN-76A rodent diet; Cat # D10001, Research Diets Inc., New Brunswick, N.J.), for 3 days at which time they are sacrificed by CO2 asphyxiation. The livers (for ACC1 preparation) or skeletal muscle tissue (for ACC2 preparation) are removed, rinsed in ice-cold phosphate-buffered saline (PBS), and homogenized in 5 volumes of homogenization buffer (50 mM potassium phosphate, pH 7.5, 10 mM EDTA, 10 mM 2-mercaptoethanol, 2 mM benzamidine, 0.2 mM phenylmethylsulfonylfluoride (PMSF), 5 mg/L each leupeptin, aprotinin, and antitrypsin) in a Waring® blender for 1 minute at 4° C. All subsequent operations are carried out at 4° C. The homogenate is made 3% with respect to polyethylene glycol (PEG) by the addition of 50% PEG solution and centrifuged at 20,000×g for 15 minutes. The resulting supernatant is adjusted to 5% PEG with the addition of 50% PEG solution and stirred for 5 minutes. The pellet (contains ACC activity) is collected by centrifugation at 20,000×g for 20 minutes, rinsed with Ice-cold doubly distilled water to remove excess PEG and re-suspended in one-fourth the original homogenate volume with homogenization buffer. Ammonium sulfate (200 g/liter) is slowly added with stirring. After 45 minutes the enzyme is collected by centrifugation for 30 minutes at 20,000×g, re-suspended in 10 ml of 50 mM HEPES, pH7.5, 0.1 mM DTT, 1.0 mM EDTA, and 10% glycerol and desalted on a Sephadex™ G-25 column (2.5 cm-x 50 cm) (Pharmacia, Piscataway N.J. now GE Healthcare) […] equilibrated with the same buffer. The desalted enzyme preparation is stored in aliquots at −70° C. Immediately prior to use, frozen ACC1 or ACC2 aliquots are thawed, diluted to 500 μg/ml in buffer containing 50 mM HEPES, pH7.5, 1.0 mM MgCl2, 10 mM tripotassium citrate, 2.0 mM dithiothreitol (DTT), and 0.75 mg/ml fatty acid-free bovine serum albumin (BSA) and pre-incubated at 37° C. for 30 minutes.
# [2] Measurement of ACC inhibition. The procedures for measuring ACC1 inhibition and ACC2 inhibition are identical except for the source of the isozyme. For measurement of ACC activity and assessment of ACC inhibition, test compounds are dissolved in dimethylsulfoxide (DMSO) and 1 μL aliquots are placed in 0.5 ml polypropylene tubes. Control tubes contain 1 μL of DMSO alone. Tubes are incubated at 37° C. in a constant temperature water bath. […] The reaction is then initiated by the addition of 10 μL of preincubated ACC fraction prepared as described above. After 7 minutes the reaction is terminated by the addition of 50 μL of 6N HCl and a 150 μL aliquot of the reaction mixture is transferred to glass scintillation vials and evaporated to dryness at 90° C. for at least 1 hour. The dried vials are then cooled, 0.5 ml of water and 5.5 ml of Ready Safe liquid scintillation fluid (Beckman Coulter Inc., Fullerton, Calif.) are added, and the radioactivity is determined using a liquid scintillation counter. Tubes that received HCl before ACC served as blanks.
Compound,IC50 (ACC1 from rat liver),other results
"Cc1cc2c(c(C)c1Cl)C(=O)CC1(CCN(C(=O)c3cccc4cn[nH]c34)CC1)O2 [Ex. H8, 6-chloro-1′-(1H-indazol-7-ylcarbonyl)-5,7-dimethylspiro[chromene-2,4′-piperidin]-4(3H)-one]",590 nM,
"6-chloro-1′-[(7-chloro-1H-indazol-5-yl)carbonyl]spiro[chromene-2,4′-piperidin]-4(3H)-one [Ex. B8]",166 nM,
"COc1cccc2c1C(=O)CC1(CCN(C(=O)c3cccc4cn[nH]c34)CC1)O2 [Ex. H20, 1′-(1H-indazol-7-ylcarbonyl)-5-methoxyspiro[chromene-2,4′-piperidin]-4(3H)-one]",2430 nM,
"CCc1nc(-c2cccc(C(=O)N3CCC4(CC3)CC(=O)c3cc(C)c(C)cc3O4)c2)no1 [Ex. P15, 6,7-Dimethyl-1′-[3-(5-ethyl-1,2,4-oxadiazol-3-yl)benzoyl]spiro[chromene-2,4′-piperidin]-4(3H)-one]",,IC50 (Table of Examples P1-P15): 7030 nM
"COC(=O)c1ccc2c(c1)C(=O)CC1(CCN(C(=O)c3ccc4c(C)n[nH]c4c3)CC1)O2 [Ex. F4, methyl 1′-[(3-methyl-1H-indazol-6-yl)carbonyl]-4-oxo-3,4-dihydrospiro[chromene-2,4′-piperidine]-6-carboxylate]",126 nM,
"COc1cc(Cl)cc2c1C(=O)CC1(CCN(C(=O)c3cc(C)c4[nH]ncc4c3)CC1)O2 [Ex. A19, 7-chloro-5-methoxy-1′-[(7-methyl-1H-indazol-5-yl)carbonyl]spiro[chromene-2,4′-piperidin]-4(3H)-one]",81.5 nM,
"Cc1cc(C(=O)N2CCC3(CC2)CC(=O)c2cc(C(F)(F)F)ccc2O3)cc2cn[nH]c12 [Ex. A20, 1′-[(7-methyl-1H-indazol-5-yl)carbonyl]-6-(trifluoromethyl)spiro[chromene-2,4′-piperidin]-4(3H)-one]",96.6 nM,
"Cc1cc(C(=O)N2CCC3(CC2)CC(=O)c2cc(C(=O)O)ccc2O3)cc2cn[nH]c12 [Ex. A33, 1′-[(7-methyl-1H-indazol-5-yl)carbonyl]-4-oxo-3,4-dihydrospiro[chromene-2,4′-piperidine]-6-carboxylic acid trifluoroacetic acid salt]",303 nM,
"O=C1CC2(CCN(C(=O)c3cccc4cn[nH]c34)CC2)Oc2ccc(Cl)cc21 [Ex. H14, 6-chloro-1′-(1H-indazol-7-ylcarbonyl)spiro[chromene-2,4′-piperidin]-4(3H)-one]",1390 nM,
"O=C1CC2(CCN(C(=O)c3cccc(-c4cc[nH]n4)c3)CC2)Oc2cc(Cl)cc(Cl)c21 [Ex. M16, 5,7-dichloro-1′-[3-(1H-pyrazol-3-yl)benzoyl]spiro[chromene-2,4′-piperidin]-4(3H)-one]",,IC50 (Table of Examples M1-M36): 319 nM
"COc1cc2c(cc1OC)C(=O)CC1(CCN(C(=O)c3cccc(-c4cc[nH]n4)c3)CC1)O2 [Ex. M31, 6,7-Dimethoxy-1′-[3-(1H-pyrazol-3-yl)benzoyl]spiro[chromene-2,4′-piperidin]-4(3H)-one]",,IC50 (Table of Examples M1-M36): 697 nM
"5,7-dichloro-1′-(1H-indazol-7-ylcarbonyl)spiro[chromene-2,4′-piperidin]-4(3H)-one [Ex. H15]",1480 nM,
COc1cccc2c1C(=O)CC1(CCN(C(=O)c3cccc4cn[nH]c34)CC1)O2 [Ex. H16],1620 nM,
"1′-1H-indol ylcarbonyl)-6,7-dimethylspiro[chromene-2,4′-piperidin]-4(3H)-one trifluoroacetic acid salt [Ex. L14]",479 nM,
"O=C1CC2(CCN(C(=O)c3cccc(-c4cc[nH]n4)c3)CC2)Oc2ccc(Cl)cc21 [Ex. M30, 6-Chloro-1′-[3-(1H-pyrazol-3-yl)benzoyl]spiro[chromene-2,4′-piperidin]-4(3H)-one]",,IC50 (Table of Examples M1-M36): 613 nM
"COc1cc2c(c(OC)c1OC)C(=O)CC1(CCN(C(=O)c3cccc(-c4cc[nH]n4)c3)CC1)O2 [Ex. M21, 5,6,7-trimethoxy-1′-[3-(1H-pyrazol-3-yl)benzoyl]spiro[chromene-2,4′-piperidin]-4(3H)-one]",,IC50 (Table of Examples M1-M36): 439 nM
"CCc1cc(C(=O)N2CCC3(CC2)CC(=O)c2cc(C(=O)OC)ccc2O3)cc2cn[nH]c12 [Ex. C5, methyl 1′-[(7-ethyl-1H-indazol-5-yl)carbonyl]-4-oxo-3,4-dihydrospiro[chromene-2,4′-piperidine]-6-carboxylate]",49.5 nM,
"Cc1cc2c(cc1C)C(=O)CC1(CCN(C(=O)c3ccc4c(C)n[nH]c4c3)CC1)O2 [Ex. F1, 6,7-dimethyl-1′-[(3-methyl-1H-indazol-6-yl)carbonyl]spiro[chromene-2,4′-piperidin]-4(3H)-one]",35.7 nM,
"Cc1cc2c(cc1C)C(=O)CC1(CCN(C(=O)c3ccc4cc[nH]c4c3)CC1)O2 [Ex. L2, 1′-(1H-indol-6-ylcarbonyl)-6,7-dimethylspiro[chromene-2,4′-piperidin]-4(3H)-one trifluoroacetic acid salt]",155 nM,
"Cc1cc2c(cc1Cl)C(=O)CC1(CCN(C(=O)c3ccc4[nH]ccc4c3)CC1)O2 [Ex. L8, 6-chloro-1′-(1H-indol-5-ylcarbonyl)-7-methylspiro[chromene-2,4′-piperidin]-4(3H)-one]",456 nM,
"Cc1cc2c(cc1C)C(=O)CC1(CCN(C(=O)c3cc(-c4cc[nH]n4)ccc3Cl)CC1)O2 [Ex. P5, 1′-[2-chloro-5-(1H-pyrazol-3-yl)benzoyl]-6,7-dimethylspiro[chromene-2,4′-piperidin]-4(3H)-one trifluoroacetic acid salt]",,IC50 (Table of Examples P1-P15): < 3000 nM
"COc1cc2c(c(OC)c1OC)C(=O)CC1(CCN(C(=O)c3cccc4cn[nH]c34)CC1)O2 [Ex. H11, 1′-(1H-indazol-7-ylcarbonyl)-5,6,7-trimethoxyspiro[chromene-2,4′-piperidin]-4(3H)-one]",756 nM,

# Second part, led by results:
IC50 (ACC1 from rat liver),Compound,other results
891 nM,"O=C(O)c1ccc2c(c1)C(=O)CC1(CCN(C(=O)c3cccc(-c4cc[nH]n4)c3)CC1)O2 [Ex. N1, 4-oxo-1′-[3-(1H-pyrazol-3-yl)benzoyl]-3,4-dihydrospiro[chromene-2,4′-piperidine]-6-carboxylic acid trifluoroacetic acid salt]",
390 nM,"CCc1nc2cc(C(=O)N3CCC4(CC3)CC(=O)c3ccccc3O4)ccc2n1-c1cccc(OC)c1 [Ex. L30, 1′-{[2-ethyl-1-(3-methoxyphenyl)-1H-benzimidazol-5-yl]carbonyl}spiro[chromene-2,4′-piperidin]-4(3H)-one]",
1140 nM,"CCc1nc2cc(C(=O)N3CCC4(CC3)CC(=O)c3c(OC)cccc3O4)ccc2n1-c1cccc(OC)c1 [Ex. L31, 1′-{[2-ethyl-1-(3-methoxyphenyl)-1H-benzimidazol-5-yl]carbonyl}-5-methoxyspiro[chromene-2,4′-piperidin]-4(3H)-one]",
< 1000 nM,"O=C1CC2(CCN(C(=O)c3ccc4[nH]nnc4c3)CC2)Oc2ccc(Cl)cc21 [Ex. L38, 1′-(1H-1,2,3-benzotriazol-5-ylcarbonyl)-6-chlorospiro[chromene-2,4′-piperidin]-4(3H)-one]",
885 nM,"Cc1cc2c(cc1C)C(=O)CC1(CCN(C(=O)c3cccc4[nH]cnc34)CC1)O2 [Ex. L17, 1′-(1H-benzimidazol-4-ylcarbonyl)-6,7-dimethylspiro[chromene-2,4′-piperidin]-4(3H)-one trifluoroacetic acid salt]",
47.3 nM,"COc1cccc2c1C(=O)CC1(CCN(C(=O)c3ccc4c(Cl)c[nH]c4c3)CC1)O2 [Ex. L6, 1′-[(3-chloro-1H-indol-6-yl)carbonyl]-5-methoxyspiro[chromene-2,4′-piperidin]-4(3H)-one]",
190 nM,"Cc1cc2c(cc1C)C(=O)CC1(CCN(C(=O)c3ccc4c(c3)[nH]c(=O)n4C)CC1)O2 [Ex. L32, 6,7-dimethyl-1′-[(1-methyl-2-oxo-2,3-dihydro-1H-benzimidazol-5-yl)carbonyl]spiro[chromene-2,4′-piperidin]-4(3H)-one]",
